These results are taken from patent EP1304119A2, “Method for preventing and treating hearing loss using a neurturin protein product” (Amgen Inc., priority 1997, dated 1999).

In series [1] the test system is cochlear hair cells. Nature of the series: Organ of Corti (cochlea) explant culture, hair cell survival after cisplatin exposure (FITC-phalloidin count). Type of series: cell-based, rat. Conditions: cisplatin treatment alone.
Text: Triton X-100 (t-Octylphenoxypoly-ethoxyethanol. Cat. #X-100, Sigma. St. Louis, MO) • 4. Phalloidin (FITC Labeled. Cat. #P-5282, Sigma. St. Louis, MO) • 5. Vectashield (Mounting Medium, Cat. #H-1000, Vector, Burlingame, CA)
Organ of Corti explants were obtained from P3-P4 Wistar rats. Rats were decapitated, the lower jaw was cut out and skin removed. The temporal bone was collected in dissection solution, the otic capsule exposed and the bony-cartilaginous cochlear capsule was carefully separated from the temporal bone. Freed cochlea were transferred to another Petri dish with dissection solution for further dissection. […] The organ of Corti was then transferred to a 35-mm diameter Petri dish containing cold PBS supplemented with glucose and ready to be cultured. […]
For each experimental point, 2 to 4 cochlea were used. In each cochlea, the number of hair cells was counted in 2-3 section, 175 mm in length each. Only the sections in the middle turn of the cochlea were analyzed. […]
For series [2], the system named is cochlear hair cells. Description: In vivo hair cell loss after cisplatin, neurturin infused into the inner ear by mini-pump. Set-up: species or system guinea pigs. Conditions: cisplatin 7.5 mg/kg twice. The procedure:
The following example describes the inner ear administration of neurturin protein product to protect cochlear hair cells against ototoxicity in an animal model. The neurturin protein product is introduced into the inner ear via a cannula pushed into the scala tympani through a hole drilled in the basal turn of the cochlea. The cannula is connected to an Alzet mini-pump loaded with neurturin protein product (50 ng/ml) at a releasing rate of 0.5 µl/hour for 14 days. […] The experiment is terminated after 27 days. The hair cells are stained with FITC-phalloidin, and their number is determined in the middle turn of the cochlea (in at least 20% of the middle turn part). The results are expressed as the percent of hair cells lost for each individual guinea pig for the neurturin protein product treated ear (right ear) and the untreated ear (left ear).
The loading of a pump with methylene dye is done by holding the pump in a vertical position. A dye-loaded syringe is inserted completely into the pump, and the dye is injected until the pump overflowed. Injection of any air bubbles into the pump is avoided. A short piece of sterile V/4 tubing is placed onto the Flow Moderator. Neurturin protein product is loaded at a concentration of 50 ng/ml in PBS + 0.1% BSA, in a total volume of 230 µl, to within about 10 mm of the cannula tip, using a syringe connected with V/4 tubing. […]

The subject of series [3] is cochlear hair cells. Description: Organ of Corti (cochlea) explant culture, hair cell survival after neomycin exposure (FITC-phalloidin count). The class given is cell-based, rat. Conditions: for Hair cell survival (% of untreated): Neomycin alone (0.6 mM), added 24 hours after plating, 3 days exposure, mean ± SD, 4320 min, 600 µM. From the text:
• 1. Neomycin solution (Cat. #N1142, Sigma. St. […] Cat. #X-100, Sigma. St. Louis, MO) • 4. Phalloidin (FITC Labeled. Cat. #P-5282, Sigma. St. Louis, MO) • 5. Vectashield (Mounting Medium, Cat. #H-1000, Vector, Burlingame, CA)
Organ of Corti explants were obtained from P3-P4 Wistar rats. Rats were decapitated, the lower jaw was cut out and skin removed. The temporal bone was collected in dissection solution, the otic capsule exposed and the bony-cartilaginous cochlear capsule was carefully separated from the temporal bone. Freed cochlea were transferred to another Petri dish with dissection solution for further dissection. Intact organs of Corti were obtained by using a fine forceps to hold central VIII nerve tissue and remove it out, then the stria vascular membrane was carefully stripped off, starting from the apex or base. The organ of Corti was then transferred to a 35-mm diameter Petri dish containing cold PBS supplemented with glucose and ready to be cultured.
Cochlea explants were cultured in uncoated 96 well microplates. A single organ of Corti was placed in a well and was kept floating in the medium.
Explants were kept in normal medium for 24 hours (90 µl/well). Neurturin protein solution (10 µl) was added to the 'treated' cultures, and 10 µl of medium were added to controls. After 24 hours of incubation, the media were changed and the explants were exposed to ototoxin-containing medium (90 µl), with neurturin protein solution (10µl) or without (control). The cultures were incubated for an additional 3 days. […]
To identify and count hair cells in the organ of Corti, a direct immunostaining method was used to label the actin present naturally in the stereocilia bundles of the hair cells. […] The explants were . observed under a Nikon Diaphot-300 inverted fluorescence microscope, using FITC filters and fluorescence optics.
For each experimental point, 2 to 4 cochlea were used. In each cochlea, the number of hair cells was counted in 2-3 section, […] in length each. Only the sections in the middle turn of the cochlea were analyzed. […]

Turning to `N.N.[Cl][Pt][Cl]` [Cisplatin], the “morphology of the organs of Corti (four-row structure)” value in the series on cochlear hair cells [1] is listed as “caused a marked disruption of the four-row-structure”. Also, the “loss of hair cells in the left ear (untreated ear)” value with cochlear hair cells [2] was “approximately 40%”.
In the case of Neomycin, the “Hair cell survival (% of untreated)” value in the series on cochlear hair cells [3] was determined as 5.9 ± 4.7 n=23%; in the series on cochlear hair cells [3] (listed as neomycin), 6%. The “morphology of the organs of Corti (four-row structure)” value in the series with cochlear hair cells [3] (neomycin treatment alone, spared hair cells) is “still organized in the typical four row structure”.
